Measured values as given in US8501424B2, “Cd4+ epitopes of bone morphogenetic proteins” (Danisco US Inc., priority 2003, dated 2013).

Experiments:
CD4+ T-cells = test: I-MUNE T-cell proliferation assay (dendritic cells + autologous CD4+ T-cells + 15-mer peptides, tritiated thymidine); assay type: cell-based, human; parameters: key to epitope designation: major: response rate within the tested donor pool is at least three standard deviations above the mean background response rate; moderate: response rate within the tested donor pool is at least two standard deviations above the mean or three times the background; minor: response rate within the tested donor pool is at least twice the background; details: 83 donors; for structure value: 15-mer peptide sets, 5 μg/ml, positive response SI >= 2.95, analysis method (QC/non-QC) not stated at place
Excerpt: Full length amino acid sequences of human BMP-7 (GenBank Accession No. P18075) and BMP-14 (GenBank Accession No. P43026) precursor proteins were used to create 15-mer peptide sets. These variant peptides were synthesized by Mimotopes, using the multi-pin synthesis technique known in the art (See e.g., Maeji et al., J. Immunol. Meth., 134:23-33 [1990]). The 15-mer peptides were created such that sequences with adjacent peptides shared 12 amino acids (i.e., each peptide was offset by three amino acids). Peptides were diluted with DMSO to provide a stock concentration of approximately 2 mg/ml. The final concentration of peptides used in each assay was 5 μg/ml.
Fresh human peripheral blood cells were collected from 83 community donors. These cells were tested to determine antigenic epitopes in BMP-7 and BMP-14, as described in Example 3, below.
Peripheral mononuclear blood cells (PBMCs) (stored at room temperature, no older than 24 hours) were prepared for use as follows. PBMCs were isolated from buffy coat material by centrifuging over an underlay of LYMPHOPREP™ at 1000×g for 30 minutes. The interface layer was collected and washed and counted using the CELL-DYN® 3700 System (Abbott). Then, suspensions containing 10^8 PBMCs resuspended in 30 ml of AIM-V (Invitrogen) were prepared and the cells were allowed to adhere to plastic T-75 culture flasks for two hours. The remainder of the cells were frozen at 5×10^7 cells/ml in 90% FCS (Gibco/BRL) and 10% DMSO (Sigma).
After the two hour PBMC incubation period, non-adherent cells were removed from the culture flasks. The adherent cells were cultured in the flasks with 800 units/ml recombinant human GM-CSF (Endogen) and 100 units/ml recombinant human IL4 (Endogen) at 37° C., 5% CO2. On day 5 of incubation, 50 units/ml recombinant human Il-1α (Endogen) and 0.2 units/ml recombinant human TNF-α were added to the cultures. Adherent and non-adherent dendritic cells were harvested, washed, and counted on day 7, following a one-hour treatment with […] mitomycin C (Sigma) and 10 mM EDTA.
Autologous CD4+ T-cells were prepared from frozen aliquots of PBMCs. After thawing and washing in DPBS, CD4+ T-cells were isolated using a commercially available CD4 negative selection kit (Dynal), according to the manufacturer's instructions. Cells were counted using the Abbott CELL-DYN® 3700 System. The purity obtained using these methods was generally found to be greater than 90%.
This Example describes the assay system used in the present invention. This test system is also referred to as the “I-MUNE®” assay system. In 96-well, round bottom plates, autologous dendritic cells and CD4+ T-cells were combined with test peptides. More specifically, in a volume of 100 μl/well, 2×10^4 dendritic cells in AIM V were combined with individual peptides (at a final peptide concentration of 5 μg/ml and a final DMSO concentration of 0.25%). After a one-hour incubation at 37° C., 5% CO2, 2×10^5 CD4+ T-cells were added to the culture for a total volume of 200 μl. Negative control wells contained dendritic cells, CD4+ T-cells and 0.25% DMSO. Positive control wells contained dendritic cells, CD4+ T-cells (at the same concentrations as the test wells) and 0.25% DMSO with 0.4 μg/ml tetanus toxoid (List). Individual peptides were tested in duplicate for each donor.
After 5 days of incubation at 37° C., 5% CO2, the cultures were pulsed with 0.25 μCi/well tritiated thymidine (Perkin Elmer). After a subsequent 24 hours of incubation, plates were harvested and assessed for incorporation of the tritiated thymidine (i.e., T-cell proliferation) using a Wallac MICROBETA® TriLux liquid scintillation counter (Perkin Elmer).
For each individual buffy coat sample, the average CPM values for all of the peptides were analyzed. The average CPM values for each peptide were divided by the average CPM value for the control (DMSO only) wells to determine the “stimulation index” (SI). […]

[1] = tested on: HLA Class II antigens at DRB1 and DQB1; test: HLA associations of proliferative responses to epitope peptides; assay type: cell-based, human; details: for relative risk (RR): 83 donors
Experimental: In addition to the above analyses, the HLA associations with BMP-7 and BMP-14 epitope peptides were determined. In these experiments, the proliferative response data to five epitope peptides (#3, #7, #8, #16 and #31) were tested in 83 donors for which the expression of HLA Class II antigens at DRB1 and DQB1 was also tested. For four of the peptides, the reaction was assessed by two methods (i.e., “QC” and “non-QC,” “[nQC”] as described above). The statistically significant associations found by both methods were as follows. For epitope #3 and DR11, the relative risk (RR) was 6.25; p<0.0005 [QC], RR=4.17 p<0.005 [nQC]. For epitope #3 and DQ2, the RR was 0.17 p<0.04 [QC], RR=0.13 p<0.01 [nQC]. For epitope #3 and DQ9, the RR was 6.67 p<0.003 [QC]; RR=4.85 p<0.013 [nQC]. For epitope #8 and DR11, the RR was 6.6 p<0.0003. For epitope #31 and DR7, the RR was 8.32 p<0.001 [QC]; RR=4.44 p<0.002 [nQC].
In addition the average stimulation index (SI) was higher among DR11+ than among DR11− donors for peptide #3 (QC) (5.8 fold, p<0.0004) and peptide #8 (2.3 fold p<0.007). Also the average SI was higher among DR7+ than among DR7− donors for peptide #31 (QC) (2.7 fold p<0.0007).

[2] = patients treated for spinal problems; cited from earlier work

In the case of “SNVILKKYRNMVVRA (BMP-7 epitope) [Peptide 41]”, the epitope designation (CD4+ T-cells) is reported as “minor” and the “statistical significance of peptide response (Poisson, cut-off p<0.05)” value (CD4+ T-cells; QC method) is reported as “did not reach the p<0.05 cut-off”.

With “RMANVAENSSSDQRQ (BMP-7 epitope) [Peptide 8]” the “relative risk (RR)” value ([1]; DR11, method not stated, p<0.0003) was 6.6 and the “average stimulation index (SI) higher among DR11+ than among DR11− donors” value ([1]; method not stated, p<0.007) was 2.3 fold.

With “SHLEPTNHAVIQTLM (BMP-14 epitope) [Peptide 20]” the epitope designation (CD4+ T-cells) was “minor” and the “statistical significance of peptide response (Poisson, cut-off p<0.05)” value (CD4+ T-cells; QC method) was “did not reach the p<0.05 cut-off”.

With “SPISILFIDSANNVV (BMP-14 epitope) [Peptide 31]” the “relative risk (RR)” value ([1]; DR7, QC, p<0.001) was 8.32, the “relative risk (RR)” value ([1]; DR7, nQC, p<0.002) was 4.44 and the “average SI higher among DR7+ than among DR7− donors” value ([1]; QC, p<0.0007) was 2.7 fold.

For “PLRSHLEPTNHAVIQ (BMP-14 epitope) [Peptide 19]”, the epitope designation (CD4+ T-cells) was “minor” and the “statistical significance of peptide response (Poisson, cut-off p<0.05)” value (CD4+ T-cells; QC method) was “did not reach the p<0.05 cut-off”.

In the case of “RSQNRSKTPKNQEAL (BMP-7 epitope) [Peptide 3]”, the “relative risk (RR)” value ([1]; DQ2, QC, p<0.04) is reported as 0.17, the “relative risk (RR)” value ([1]; DQ2, nQC, p<0.01) is reported as 0.13 and the “relative risk (RR)” value ([1]; DQ9, QC, p<0.003) is reported as 6.67. The “relative risk (RR)” value ([1]; DQ9, nQC, p<0.013) was 4.85, the “relative risk (RR)” value ([1]; DR11, QC, p<0.0005) was 6.25 and the “relative risk (RR)” value ([1]; DR11, nQC, p<0.005) was 4.17. The “average stimulation index (SI) higher among DR11+ than among DR11− donors” value ([1]; QC, p<0.0004) was 5.8 fold.

B1: BMP-7: human BMP-7 (GenBank Accession No. P18075), tested as 15-mer peptide set (protein, UniProt P18075 293-431, looked up)
Bone morphogenetic protein 7: STGSKQRSQNRSKTPKNQEALRMANVAENSSSDQRQACKKHELYVSFRDLGWQDWIIAPEGYAAYYCEGECAFPLNSYMNATNHAIVQTLVHFINPETVPKPCCAPTQLNAISVLYFDDSSNVILKKYRNMVVRACGCH
modifications: tested as overlapping 15-mer peptides
In the case of B1, the structure value (CD4+ T-cells) is reported as 0.70, the “relative immunogenicity by structure values” (CD4+ T-cells; QC method) is reported as “more immunogenic than BMP-14” and the relative immunogenicity (CD4+ T-cells; non-QC method) is reported as “more immunogenic than the BMP-14 protein”. The “treated patients who developed detectable anti-BMP antibodies” value [2] was 38%.

B2: BMP-14: human BMP-14 (GenBank Accession No. P43026), tested as 15-mer peptide set (protein, UniProt P43026 382-501, looked up)
Growth/differentiation factor …: APLATRQGKRPSKNLKARCSRKALHVNFKDMGWDDWIIAPLEYEAFHCEGLCEFPLRSHLEPTNHAVIQTLMNSMDPESTPPTCCVPTRLSPISILFIDSANNVVYKQYEDMVVESCGCR
modifications: tested as overlapping 15-mer peptides
For B2, the structure value (CD4+ T-cells) was 0.57.
